Like-named read-outs stand apart in the source and are kept apart here.
Assays:
[1] = format: physicochemical; settings: 298.15 K; for Gibbs energy of transfer of RST from neat water to the mixture / ΔsolnG°, standard Gibbs free energy of dissolution: 0.1 MPa
[2] = Equilibrium mole fraction solubility of RST in {PEG400; format: physicochemical
[3] = cited from earlier work
[4] = cited from earlier work; remark: listed apart in the source
[5] = format: physicochemical; settings: for 100 δx1,3 (preferential solvation parameter of RST by PEG400) / D (derivative of the Gibbs energy of transfer) / G1,3 (Kirkwood–Buff integral, PEG400–RST) / G2,3 (Kirkwood–Buff integral, water–RST) / Vcor (correlation volume): 0.1 MPa

## CC(C)c1nc(N(C)S(C)(=O)=O)nc(-c2ccc(F)cc2)c1/C=C/[C@@H](O)C[C@@H](O)CC(=O)[O-].CC(C)c1nc(N(C)S(C)(=O)=O)nc(-c2ccc(F)cc2)c1/C=C/[C@@H](O)C[C@@H](O)CC(=O)[O-].[Ca+2] [RST, (E)-7-[4-(4-fluorophenyl)-6-isopropyl-2-[methyl(methylsulfonyl)amino]pyrimidin-5-yl]-(3R,5S)-3,5-dihydroxyhept-6-enoic acid, calcium salt (2:1)]
[1]; all mixtures
  Gibbs energy of transfer of RST from neat water to {PEG400 + water} mixtures, range: −2.39 to −14.24 kJ·mol^–1
[1]; w1 = 0.00 (neat water)
  Gibbs energy of transfer of RST from neat water to the mixture: 0.00 kJ·mol^–1
  ΔsolnG°, standard Gibbs free energy of dissolution: 32.36 kJ·mol^–1
[1]; w1 = 0.10 PEG400
  Gibbs energy of transfer of RST from neat water to the mixture: –2.39 kJ·mol^–1
  ΔsolnG°, standard Gibbs free energy of dissolution: 29.97 kJ·mol^–1
[1]; w1 = 0.20 PEG400
  Gibbs energy of transfer of RST from neat water to the mixture: –3.53 kJ·mol^–1
  ΔsolnG°, standard Gibbs free energy of dissolution: 28.83 kJ·mol^–1
[1]; w1 = 0.30 PEG400
  Gibbs energy of transfer of RST from neat water to the mixture: –5.49 kJ·mol^–1
  ΔsolnG°, standard Gibbs free energy of dissolution: 26.86 kJ·mol^–1
[1]; w1 = 0.40 PEG400
  Gibbs energy of transfer of RST from neat water to the mixture: –7.93 kJ·mol^–1
  ΔsolnG°, standard Gibbs free energy of dissolution: 24.42 kJ·mol^–1
[1]; w1 = 0.50 PEG400
  Gibbs energy of transfer of RST from neat water to the mixture: –8.49 kJ·mol^–1
  ΔsolnG°, standard Gibbs free energy of dissolution: 23.87 kJ·mol^–1
[1]; w1 = 0.60 PEG400
  Gibbs energy of transfer of RST from neat water to the mixture: –8.94 kJ·mol^–1
  ΔsolnG°, standard Gibbs free energy of dissolution: 23.42 kJ·mol^–1
[1]; w1 = 0.70 PEG400
  Gibbs energy of transfer of RST from neat water to the mixture: –9.46 kJ·mol^–1
  ΔsolnG°, standard Gibbs free energy of dissolution: 22.90 kJ·mol^–1
[1]; w1 = 0.80 PEG400
  Gibbs energy of transfer of RST from neat water to the mixture: –10.34 kJ·mol^–1
  ΔsolnG°, standard Gibbs free energy of dissolution: 22.02 kJ·mol^–1
[1]; w1 = 0.90 PEG400
  ΔsolnG°, standard Gibbs free energy of dissolution: 21.15 kJ·mol^–1
[1]; w1 = 1.00 (neat PEG400)
  Gibbs energy of transfer of RST from neat water to the mixture: –14.24 kJ·mol^–1
  ΔsolnG°, standard Gibbs free energy of dissolution: 18.12 kJ·mol^–1
[2]; PEG400
  solubility at 3 days: 6500 µg/mL
[2]; PEG400 + water cosolvent mixture
  solubility at 3 days: 4140 µg/mL
[3]; GastroPlus input parameter
  elimination half-life: 19 h
  total clearance: 0.455 L/h
  volume of distribution: 2.23 L/kg
[3]; reported
  oral bioavailability: ~20%
[4]; GastroPlus input parameter (Table 5)
  pKa: 4
[4]; GastroPlus input parameter
  hydrogen-bonding acceptor counts: 10
  hydrogen-bonding donor counts: 3
[4]; PEG400
  maximum solubility in PEG400: 65.7 mg/g
[4]; as reported in NLM PubChem
  aqueous solubility: 8.86 × 10^–2 g/L
[4]; water, 25 °C, GastroPlus input parameter
  solubility (mg/mL) in water at 25 (°C): 0.33 mg/mL
[5]; calculated from molar volume
  molecular radius r3: 0.5 nm
[5]; x1 = 0.00, 298.15 K
  100 δx1,3 (preferential solvation parameter of RST by PEG400): 0.00
  D (derivative of the Gibbs energy of transfer): –328.34 kJ·mol^–1
  G1,3 (Kirkwood–Buff integral, PEG400–RST): –2707.6 cm^3·mol^–1
  G2,3 (Kirkwood–Buff integral, water–RST): –313.7 cm^3·mol^–1
  Vcor (correlation volume): 1163 cm^3·mol^–1
[5]; x1 = 0.05, 298.15 K
  100 δx1,3 (preferential solvation parameter of RST by PEG400): 0.01
  D (derivative of the Gibbs energy of transfer): –31.52 kJ·mol^–1
  G1,3 (Kirkwood–Buff integral, PEG400–RST): –488.9 cm^3·mol^–1
  G2,3 (Kirkwood–Buff integral, water–RST): –491.2 cm^3·mol^–1
  Vcor (correlation volume): 1589 cm^3·mol^–1
[5]; x1 = 0.10, 298.15 K
  100 δx1,3 (preferential solvation parameter of RST by PEG400): 0.31
  D (derivative of the Gibbs energy of transfer): –9.90 kJ·mol^–1
  G1,3 (Kirkwood–Buff integral, PEG400–RST): –358.4 cm^3·mol^–1
  G2,3 (Kirkwood–Buff integral, water–RST): –412.8 cm^3·mol^–1
  Vcor (correlation volume): 1980 cm^3·mol^–1
[5]; x1 = 0.15, 298.15 K
  100 δx1,3 (preferential solvation parameter of RST by PEG400): 0.71
  D (derivative of the Gibbs energy of transfer): –10.32 kJ·mol^–1
  G1,3 (Kirkwood–Buff integral, PEG400–RST): –353.1 cm^3·mol^–1
  G2,3 (Kirkwood–Buff integral, water–RST): –458.2 cm^3·mol^–1
  Vcor (correlation volume): 2343 cm^3·mol^–1
[5]; x1 = 0.20, 298.15 K
  100 δx1,3 (preferential solvation parameter of RST by PEG400): 1.05
  D (derivative of the Gibbs energy of transfer): –9.89 kJ·mol^–1
  G1,3 (Kirkwood–Buff integral, PEG400–RST): –346.4 cm^3·mol^–1
  G2,3 (Kirkwood–Buff integral, water–RST): –492.0 cm^3·mol^–1
  Vcor (correlation volume): 2680 cm^3·mol^–1
[5]; x1 = 0.25, 298.15 K
  100 δx1,3 (preferential solvation parameter of RST by PEG400): 1.29
  D (derivative of the Gibbs energy of transfer): –8.96 kJ·mol^–1
  G1,3 (Kirkwood–Buff integral, PEG400–RST): –339.9 cm^3·mol^–1
  G2,3 (Kirkwood–Buff integral, water–RST): –513.6 cm^3·mol^–1
  Vcor (correlation volume): 2997 cm^3·mol^–1
[5]; x1 = 0.30, 298.15 K
  100 δx1,3 (preferential solvation parameter of RST by PEG400): 1.45
  D (derivative of the Gibbs energy of transfer): –7.95 kJ·mol^–1
  G1,3 (Kirkwood–Buff integral, PEG400–RST): –334.6 cm^3·mol^–1
  G2,3 (Kirkwood–Buff integral, water–RST): –529.0 cm^3·mol^–1
  Vcor (correlation volume): 3297 cm^3·mol^–1
[5]; x1 = 0.35, 298.15 K
  100 δx1,3 (preferential solvation parameter of RST by PEG400): 1.54
  D (derivative of the Gibbs energy of transfer): –7.01 kJ·mol^–1
  G1,3 (Kirkwood–Buff integral, PEG400–RST): –330.5 cm^3·mol^–1
  G2,3 (Kirkwood–Buff integral, water–RST): –542.0 cm^3·mol^–1
  Vcor (correlation volume): 3585 cm^3·mol^–1
[5]; x1 = 0.40, 298.15 K
  100 δx1,3 (preferential solvation parameter of RST by PEG400): 1.60
  D (derivative of the Gibbs energy of transfer): –6.19 kJ·mol^–1
  G1,3 (Kirkwood–Buff integral, PEG400–RST): –327.6 cm^3·mol^–1
  G2,3 (Kirkwood–Buff integral, water–RST): –554.7 cm^3·mol^–1
  Vcor (correlation volume): 3863 cm^3·mol^–1
[5]; x1 = 0.45, 298.15 K
  100 δx1,3 (preferential solvation parameter of RST by PEG400): 1.64
  D (derivative of the Gibbs energy of transfer): –5.48 kJ·mol^–1
  G1,3 (Kirkwood–Buff integral, PEG400–RST): –325.4 cm^3·mol^–1
  G2,3 (Kirkwood–Buff integral, water–RST): –568.4 cm^3·mol^–1
  Vcor (correlation volume): 4133 cm^3·mol^–1
[5]; x1 = 0.5, 298.15 K
  δx1,3, highest preferential solvation parameter of RST by PEG400: 1.65 × 10^–2
[5]; x1 = 0.50, 298.15 K
  100 δx1,3 (preferential solvation parameter of RST by PEG400): 1.65
  D (derivative of the Gibbs energy of transfer): –4.88 kJ·mol^–1
  G1,3 (Kirkwood–Buff integral, PEG400–RST): –323.8 cm^3·mol^–1
  G2,3 (Kirkwood–Buff integral, water–RST): –584.0 cm^3·mol^–1
  Vcor (correlation volume): 4396 cm^3·mol^–1
[5]; x1 = 0.55, 298.15 K
  100 δx1,3 (preferential solvation parameter of RST by PEG400): 1.64
  D (derivative of the Gibbs energy of transfer): –4.36 kJ·mol^–1
  G1,3 (Kirkwood–Buff integral, PEG400–RST): –322.8 cm^3·mol^–1
  G2,3 (Kirkwood–Buff integral, water–RST): –601.8 cm^3·mol^–1
  Vcor (correlation volume): 4652 cm^3·mol^–1
[5]; x1 = 0.60, 298.15 K
  100 δx1,3 (preferential solvation parameter of RST by PEG400): 1.61
  D (derivative of the Gibbs energy of transfer): –3.92 kJ·mol^–1
  G1,3 (Kirkwood–Buff integral, PEG400–RST): –322.0 cm^3·mol^–1
  G2,3 (Kirkwood–Buff integral, water–RST): –621.8 cm^3·mol^–1
  Vcor (correlation volume): 4901 cm^3·mol^–1
[5]; x1 = 0.65, 298.15 K
  100 δx1,3 (preferential solvation parameter of RST by PEG400): 1.55
  D (derivative of the Gibbs energy of transfer): –3.54 kJ·mol^–1
  G1,3 (Kirkwood–Buff integral, PEG400–RST): –321.5 cm^3·mol^–1
  G2,3 (Kirkwood–Buff integral, water–RST): –643.4 cm^3·mol^–1
  Vcor (correlation volume): 5144 cm^3·mol^–1
[5]; x1 = 0.70, 298.15 K
  100 δx1,3 (preferential solvation parameter of RST by PEG400): 1.46
  D (derivative of the Gibbs energy of transfer): –3.21 kJ·mol^–1
  G1,3 (Kirkwood–Buff integral, PEG400–RST): –321.0 cm^3·mol^–1
  G2,3 (Kirkwood–Buff integral, water–RST): –664.5 cm^3·mol^–1
  Vcor (correlation volume): 5379 cm^3·mol^–1
[5]; x1 = 0.75, 298.15 K
  100 δx1,3 (preferential solvation parameter of RST by PEG400): 1.31
  D (derivative of the Gibbs energy of transfer): –2.92 kJ·mol^–1
  G1,3 (Kirkwood–Buff integral, PEG400–RST): –320.4 cm^3·mol^–1
  G2,3 (Kirkwood–Buff integral, water–RST): –682.1 cm^3·mol^–1
  Vcor (correlation volume): 5607 cm^3·mol^–1
[5]; x1 = 0.80, 298.15 K
  100 δx1,3 (preferential solvation parameter of RST by PEG400): 1.09
  D (derivative of the Gibbs energy of transfer): –2.67 kJ·mol^–1
  G1,3 (Kirkwood–Buff integral, PEG400–RST): –319.6 cm^3·mol^–1
  G2,3 (Kirkwood–Buff integral, water–RST): –691.4 cm^3·mol^–1
  Vcor (correlation volume): 5827 cm^3·mol^–1
[5]; x1 = 0.85, 298.15 K
  100 δx1,3 (preferential solvation parameter of RST by PEG400): 0.83
  D (derivative of the Gibbs energy of transfer): –2.45 kJ·mol^–1
  G1,3 (Kirkwood–Buff integral, PEG400–RST): –318.5 cm^3·mol^–1
  G2,3 (Kirkwood–Buff integral, water–RST): –687.6 cm^3·mol^–1
  Vcor (correlation volume): 6039 cm^3·mol^–1
[5]; x1 = 0.90, 298.15 K
  100 δx1,3 (preferential solvation parameter of RST by PEG400): 0.54
  D (derivative of the Gibbs energy of transfer): –2.26 kJ·mol^–1
  G1,3 (Kirkwood–Buff integral, PEG400–RST): –317.0 cm^3·mol^–1
  G2,3 (Kirkwood–Buff integral, water–RST): –668.0 cm^3·mol^–1
  Vcor (correlation volume): 6246 cm^3·mol^–1
[5]; x1 = 0.95, 298.15 K
  100 δx1,3 (preferential solvation parameter of RST by PEG400): 0.25
  D (derivative of the Gibbs energy of transfer): –2.08 kJ·mol^–1
  G1,3 (Kirkwood–Buff integral, PEG400–RST): –315.3 cm^3·mol^–1
  G2,3 (Kirkwood–Buff integral, water–RST): –633.9 cm^3·mol^–1
  Vcor (correlation volume): 6447 cm^3·mol^–1
[5]; x1 = 1.00, 298.15 K
  100 δx1,3 (preferential solvation parameter of RST by PEG400): 0.00
  D (derivative of the Gibbs energy of transfer): –1.93 kJ·mol^–1
  G1,3 (Kirkwood–Buff integral, PEG400–RST): –313.7 cm^3·mol^–1
  G2,3 (Kirkwood–Buff integral, water–RST): –590.9 cm^3·mol^–1
  Vcor (correlation volume): 6645 cm^3·mol^–1
